Earlier results on 1 compound are cited in PMC12435690, “KYLO-0603, a novel liver-targeting, thyroid hormone receptor-β agonist for the inhibition of MASH progression” (PLOS One, 2025).

Where “and” joins values, the source holds several entries; their conditions need not be identical. Equal entries are not always repeated.

The data set concerns THR-β over THR-α. Further details: method as in PMID 38771485, PMID 33306682, PMID 9653548, PMID 32098589. Conditions: in vitro THR competition assays ref [28],[47],[48],[49]; cited from earlier work.

Consider `CC(C)c1cc(Oc2c(Cl)cc(-n3nc(C#N)c(=O)[nH]c3=O)cc2Cl)n[nH]c1=O` [Resmetirom], for which the “selectivity ratio for THR-β over THR-α” value is 12 and 17.
